Among the data in patent US9440969B2, “Compounds and methods for kinase modulation, and indications therefor” (PLEXXIKON INC., priority 2009, dated 2016) are IC50 values, retold here.

The target of one experiment is B-Raf (Homo sapiens, UniProt P15056). Briefly: B-Raf kinase activity assay (AlphaScreen, biotin-MEK1 substrate). The note with it: 100 μM ATP, 100 nM biotin-MEK1, 45 minutes at room temperature; read-out: Biochemical activity (IC50 μM) B-Raf. In short, it runs like this:
(§1)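 Each Raf enzyme (0.1 ng) phosphorylates 100 nM biotin-MEK1 in pH 7.0 HEPES with Mg2+/Mn2+, 100 μM ATP final, 45 min at room temperature. Phospho-MEK1/2 antibody with AlphaScreen beads is read after 3 h. IC50 comes from an 8-point dilution series.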
Background: In Alpha technology, singlet oxygen from a donor bead excites a nearby acceptor bead.

The target of another experiment is B-Raf V600E (Homo sapiens, UniProt P15056, V600E). In words: B-Raf V600E kinase activity assay (AlphaScreen, biotin-MEK1 substrate). The conditions noted are these: 100 μM ATP, 100 nM biotin-MEK1, 45 minutes at room temperature, read-out: Biochemical activity (IC50 μM) V600E. In short, it runs like this: as §1
The target in the next experiment is c-Raf-1 (Homo sapiens, UniProt P04049). In words: c-Raf-1 kinase activity assay (AlphaScreen, biotin-MEK1 substrate). The note with it: 100 μM ATP, 100 nM biotin-MEK1, 45 minutes at room temperature; read-out: Biochemical activity (IC50 μM) c-Raf-1. In short, it runs like this:
as §1

The subject of experiment [1] is A375 melanoma (B-Raf V600E mutation). Briefly: A375 cell growth inhibition (ATPlite luminescence). In kind it is cell-based. The note with it: Homo sapiens, A-375, 72 h, A375 cells, incubated 3 days with compound. As to the method: Compounds are assessed in a variety of cell based assays. For example human cell lines with B-Raf V600E mutation (A375 melanoma, SKMEL3 melanoma, and COLO205 colon adenocarcinoma), as well as tumorigenic cell lines with wild-type B-RAF (SW620 colon adenocarcinoma) or with Ras mutations (SKMEL2 melanoma and IPC298 melanoma). Similar assays may be used to assess additional tumorigenic cell lines with Ras mutations, including, but not limited to, M202, M207, M243, M244, M296, S117, HCT116, HCT15, DLD1, MiaPaCa, A549, NCI-H23, NCI-H460, HOP62, MDA-MB231, Hs-578T, HL60, MOLT-4, and CCRF-CEM.
On day 1, cells are counted, then centrifuged in a conical tube for 5 minutes at 1000 rpm. The supernatant is removed and cells are re-suspended as follows: • SW620 (ATCC catalog #CCL-27): resuspend in Leibovitz's L-15 medium, 2 mM L-glutamine, 10% fetal bovine serum to 6×10^4 cells/mL. • A375 (ATCC catalog #CRL-1619): resuspend in Dulbecco's modified Eagle's medium, 4 mM L-glutamine, 4.5 g/L D-glucose, 10% fetal bovine serum to 6×10^4 cells/mL. • COLO205 (ATCC catalog #CCL-222): resuspend in RPMI 1640, 2 mM L-glutamine, 1.5 g/L sodium bicarbonate, 4.5 g/L D-glucose, 10 mM HEPES, 1.0 mM sodium pyruvate, 10% fetal bovine serum to 6×10^4 cells/mL. • SKMEL2 (ATCC catalog #HTB-68): resuspend in Minimum Eagle essential medium, 2 mM L-glutamine, 1.5 g/L sodium bicarbonate, 0.1 mM non-essential amino acids, 1.0 mM sodium pyruvate, 10% fetal bovine serum to 6×10^4 cells/mL. • SKMEL3 (ATCC catalog #HTB-69): resuspend in McCoy's 5A medium, 1.5 mM L-glutamine, 15% fetal bovine serum to 6×10^4 cells/mL. • IPC298 (DSMZ catalog #ACC 251): resuspend in RPMI 1640, 2 mM L-glutamine, 10% fetal bovine serum to 6×10^4 cells/mL.
The cells are plated, 50 μL in each well of a 96-well dish (Corning 3610) and incubated at 37° C. in 5% CO2 overnight, cells plated to a final concentration of cells as follows:
On day 2, compound at a maximum concentration of 5 mM is serially diluted 1:3 (e.g. 10 μL with 30 μL dimethyl sulfoxide) for a total of 8 point titration with DMSO as a control. A 1 μL aliquot of each dilution point and control is added to 249 μL growth media and 50 μL is added to a well containing cells, providing 10 μM compound at the maximum concentration point. The cells are incubated for 3 days at 37° C. in 5% CO2.
On day 5, ATPlite 1 step Luminescence Assay System (Perkin Elmer #6016739) is brought to room temperature along with the cell cultures. ATPlite is added 25 μL to each well, shake for 2 minutes, and the cells are incubated at room temperature for 10 minutes, then luminescence is read on Safire reader. The measured luminescence correlates directly with cell number, such that the reading as a function of compound concentration is used to determine the IC50 value.
It is understood that the results of these assays may vary as assay conditions are varied. Inhibition levels determined under the conditions described herein represent a relative activity for the compounds tested under the specific conditions employed. The cell based assays are likely to show variability due to the complexity of the system and the sensitivity thereof to any changes in the assay conditions. […] Results for compounds that are tested and show substantially no inhibition below the highest tested concentration are represented as “-” in the tables below. In some instances, the compounds were not tested in all of the assays, or assay results were not valid, as indicated by NA in the tables below.
For orientation: In ATP-based viability assays light output follows the ATP content of the culture.

In experiment [2] the test system is COLO205 colon adenocarcinoma (B-Raf V600E mutation). In words: COLO205 cell growth inhibition (ATPlite luminescence). The conditions noted are these: Homo sapiens, COLO 205, 72 h, COLO205 cells, incubated 3 days with compound. In kind it is cell-based. A digest of the protocol: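 Cells seeded at 6×10^4 cells/mL in line-specific medium with 10% FBS, held overnight at 37°C, then given an 8-point 1:3 compound titration (top 10 μM final) for 3 days at 37°C, 5% CO2. ATP content read by ATPlite luminescence as a cell-number proxy; IC50 fitted from luminescence versus concentration.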

What is called IC50 is the concentration needed to halve the response being measured.

Sequence of c-Raf-1 (P04049 whole entry Y340D/Y341D, form open): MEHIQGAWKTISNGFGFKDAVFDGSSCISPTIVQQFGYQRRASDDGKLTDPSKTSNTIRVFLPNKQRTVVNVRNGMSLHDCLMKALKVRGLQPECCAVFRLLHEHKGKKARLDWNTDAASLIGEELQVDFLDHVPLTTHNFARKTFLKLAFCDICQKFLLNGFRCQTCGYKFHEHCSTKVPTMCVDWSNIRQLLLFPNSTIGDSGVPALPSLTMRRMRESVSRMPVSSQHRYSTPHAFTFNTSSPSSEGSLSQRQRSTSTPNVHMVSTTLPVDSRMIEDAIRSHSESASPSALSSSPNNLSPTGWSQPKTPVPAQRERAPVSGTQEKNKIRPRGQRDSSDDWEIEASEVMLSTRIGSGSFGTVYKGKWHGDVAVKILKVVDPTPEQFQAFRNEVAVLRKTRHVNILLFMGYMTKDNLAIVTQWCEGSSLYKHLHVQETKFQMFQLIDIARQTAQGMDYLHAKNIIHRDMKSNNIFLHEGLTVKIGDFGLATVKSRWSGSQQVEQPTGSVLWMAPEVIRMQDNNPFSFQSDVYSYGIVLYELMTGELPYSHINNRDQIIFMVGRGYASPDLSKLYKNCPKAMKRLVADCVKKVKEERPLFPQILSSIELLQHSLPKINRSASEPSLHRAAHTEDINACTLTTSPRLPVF
Sequence of B-Raf V600E (P15056 whole entry V600E): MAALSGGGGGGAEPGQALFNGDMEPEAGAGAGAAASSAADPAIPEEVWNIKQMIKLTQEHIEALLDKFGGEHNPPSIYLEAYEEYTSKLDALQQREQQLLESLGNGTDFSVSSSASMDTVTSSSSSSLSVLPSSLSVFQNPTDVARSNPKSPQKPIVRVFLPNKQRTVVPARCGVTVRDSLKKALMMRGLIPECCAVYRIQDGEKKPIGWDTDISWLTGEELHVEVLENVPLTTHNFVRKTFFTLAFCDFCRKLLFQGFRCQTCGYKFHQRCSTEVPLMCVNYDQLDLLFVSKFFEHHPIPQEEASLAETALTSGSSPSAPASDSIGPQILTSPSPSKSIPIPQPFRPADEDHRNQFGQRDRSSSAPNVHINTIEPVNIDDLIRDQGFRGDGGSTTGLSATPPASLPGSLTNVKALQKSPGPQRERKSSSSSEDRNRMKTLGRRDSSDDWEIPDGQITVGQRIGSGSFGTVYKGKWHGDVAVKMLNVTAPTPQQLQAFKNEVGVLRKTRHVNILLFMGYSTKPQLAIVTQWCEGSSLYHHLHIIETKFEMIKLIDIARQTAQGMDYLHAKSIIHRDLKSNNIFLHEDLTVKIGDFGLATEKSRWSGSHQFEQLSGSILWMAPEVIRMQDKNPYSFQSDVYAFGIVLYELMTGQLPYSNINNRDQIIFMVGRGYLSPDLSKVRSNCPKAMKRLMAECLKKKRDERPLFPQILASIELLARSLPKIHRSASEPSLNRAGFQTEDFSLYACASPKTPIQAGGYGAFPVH
Sequence of B-Raf (P15056 whole entry): as the sequence (P15056 whole entry V600E) above, with E600V counted along it

Take `CCCS(=O)(=O)Nc1ccc(F)c(C(=O)c2c[nH]c3ncc(-c4cnc(-n5ccccc5=O)cn4)cc23)c1F` [P-1600, Propane-1-sulfonic acid (2,4-difluoro-3-{5-[5-(2-oxo-2H-pyridin-1-yl)-pyrazin-2-yl]-1H-pyrrolo[2,3-b]pyridine-3-carbonyl}-phenyl)-amide]: the IC50 is less than 0.1 µM on B-Raf; less than 0.1 µM on B-Raf V600E; less than 0.1 µM at c-Raf-1; greater than 1 µM in experiment [1]; less than 1 µM in experiment [2].
